Source: PubChem BioAssay AID1919006 (Molecular Pharmacology Branch, DTP, NCI, 2023)

Test system: 885512-296-R-J2-PDC complex spheroid growth, % test/control
Test: Anticancer human tumor 885512-296-R-J2-PDC patient-derived breast carcinoma cell line growth inhibition [AhR]
Conditions: for IC50: curve of first compound; for viability, T/C: stronger effect = lower value
Summary of the method: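 Agents were dosed in half-log steps down from roughly clinical Cmax, or from 10 microM where Cmax was unknown, alone and with AhR antagonists. Read-out: percent test/control growth of tumor spheroids containing HUVEC and MSC stromal cells.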

[1] = second compound 0.1 µM, first compound 0.0316 µM
[2] = second compound 0.1 µM, first compound 0.1 µM
[3] = second compound 0.316 µM, first compound 0.0316 µM
[4] = second compound 0.316 µM, first compound 0.1 µM
[5] = second compound 1 µM, first compound 0.0316 µM
[6] = second compound 1 µM, first compound 0.1 µM
[7] = second compound 3.16 µM, first compound 0.0316 µM
[8] = second compound 3.16 µM, first compound 0.1 µM
[9] = second compound 10 µM, first compound 0.0316 µM
[10] = second compound 10 µM, first compound 0.1 µM
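Also: spheroids exposed to compounds for seven days.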

Molecule `CC1(C)CCC(CN2CCN(c3ccc(C(=O)NS(=O)(=O)c4ccc(NCC5CCOCC5)c([N+](=O)[O-])c4)c(Oc4cnc5[nH]ccc5c4)c3)CC2)=C(c2ccc(Cl)cc2)C1` + Cc1ccccc1N=Nc1ccc(NC(=O)c2ccnn2C)c(C)c1 has an IC50 (second compound 0.1 µM) of 4.21 µM, an IC50 (second compound 0.316 µM) of 4.24 µM and an IC50 (second compound 1 µM) of 4.14 µM. It also gave an IC50 (second compound 3.16 µM) of 3.05 µM, an IC50 (second compound 10 µM) of 0.288 µM and a viability, T/C [1] of 107%. It also gave a viability, T/C [2] of 85.4%, a viability, T/C (second compound 0.1 µM, first compound 0.316 µM) of 103% and a viability, T/C (second compound 0.1 µM, first compound 1 µM) of 90.2%. For the same molecule, the viability, T/C (second compound 0.1 µM, first compound 3.16 µM) was 61.4%, the viability, T/C (second compound 0.1 µM, first compound 10 µM) was 16.1% and the viability, T/C [3] was 109%. For the same molecule, the viability, T/C [4] was 116%, the viability, T/C (second compound 0.316 µM, first compound 0.316 µM) was 102% and the viability, T/C (second compound 0.316 µM, first compound 1 µM) was 85.1%. For the same molecule, the viability, T/C (second compound 0.316 µM, first compound 3.16 µM) was 63.7%, the viability, T/C (second compound 0.316 µM, first compound 10 µM) was 15.8% and the viability, T/C [5] was 97.9%. For the same molecule, the viability, T/C [6] was 97.8%, the viability, T/C (second compound 1 µM, first compound 0.316 µM) was 94.2% and the viability, T/C (second compound 1 µM, first compound 1 µM) was 86%. The viability, T/C (second compound 1 µM, first compound 3.16 µM) was 60.4%, the viability, T/C (second compound 1 µM, first compound 10 µM) was 15.5% and the viability, T/C [7] was 93.8%. It also gave a viability, T/C [8] of 83.1%, a viability, T/C (second compound 3.16 µM, first compound 0.316 µM) of 83.3% and a viability, T/C (second compound 3.16 µM, first compound 1 µM) of 73.3%. For the same molecule, the viability, T/C (second compound 3.16 µM, first compound 3.16 µM) was 48.3%, the viability, T/C (second compound 3.16 µM, first compound 10 µM) was 14.9% and the viability, T/C [9] was 46.4%. It also gave a viability, T/C [10] of 53.8%, a viability, T/C (second compound 10 µM, first compound 0.316 µM) of 53.2% and a viability, T/C (second compound 10 µM, first compound 1 µM) of 44.6%. It also gave a viability, T/C (second compound 10 µM, first compound 3.16 µM) of 40.2% and a viability, T/C (second compound 10 µM, first compound 10 µM) of 15.7%.

For `CCN(c1cc(-c2ccc(CN3CCOCC3)cc2)cc(C(=O)NCc2c(C)cc(C)[nH]c2=O)c1C)C1CCOCC1` + Cc1ccccc1N=Nc1ccc(NC(=O)c2ccnn2C)c(C)c1, the IC50 (second compound 0.1 µM) was over 3 µM, the IC50 (second compound 0.316 µM) was over 3 µM and the IC50 (second compound 1 µM) was over 3 µM. The IC50 (second compound 3.16 µM) was over 3 µM, the IC50 (second compound 10 µM) was 0.114 µM and the viability, T/C (second compound 0.1 µM, first compound 0.00949 µM) was 116%. The viability, T/C (second compound 0.1 µM, first compound 0.03 µM) was 111%, the viability, T/C (second compound 0.1 µM, first compound 0.0949 µM) was 104% and the viability, T/C (second compound 0.1 µM, first compound 0.3 µM) was 80.5%. It also gave a viability, T/C (second compound 0.1 µM, first compound 0.949 µM) of 78.8%, a viability, T/C (second compound 0.1 µM, first compound 3 µM) of 79% and a viability, T/C (second compound 0.316 µM, first compound 0.00949 µM) of 117%. The viability, T/C (second compound 0.316 µM, first compound 0.03 µM) was 110%, the viability, T/C (second compound 0.316 µM, first compound 0.0949 µM) was 94.5% and the viability, T/C (second compound 0.316 µM, first compound 0.3 µM) was 89.8%. For the same molecule, the viability, T/C (second compound 0.316 µM, first compound 0.949 µM) was 80.8%, the viability, T/C (second compound 0.316 µM, first compound 3 µM) was 68.5% and the viability, T/C (second compound 1 µM, first compound 0.00949 µM) was 106%. The viability, T/C (second compound 1 µM, first compound 0.03 µM) was 108%, the viability, T/C (second compound 1 µM, first compound 0.0949 µM) was 108% and the viability, T/C (second compound 1 µM, first compound 0.3 µM) was 87.2%. It also gave a viability, T/C (second compound 1 µM, first compound 0.949 µM) of 71%, a viability, T/C (second compound 1 µM, first compound 3 µM) of 65.7% and a viability, T/C (second compound 3.16 µM, first compound 0.00949 µM) of 98.6%. The viability, T/C (second compound 3.16 µM, first compound 0.03 µM) was 95.5%, the viability, T/C (second compound 3.16 µM, first compound 0.0949 µM) was 78.8% and the viability, T/C (second compound 3.16 µM, first compound 0.3 µM) was 69.6%. The viability, T/C (second compound 3.16 µM, first compound 0.949 µM) was 57.8%, the viability, T/C (second compound 3.16 µM, first compound 3 µM) was 60.1% and the viability, T/C (second compound 10 µM, first compound 0.00949 µM) was 49.1%. The viability, T/C (second compound 10 µM, first compound 0.03 µM) was 62.3%, the viability, T/C (second compound 10 µM, first compound 0.0949 µM) was 47.9% and the viability, T/C (second compound 10 µM, first compound 0.3 µM) was 45.8%. For the same molecule, the viability, T/C (second compound 10 µM, first compound 0.949 µM) was 43.3% and the viability, T/C (second compound 10 µM, first compound 3 µM) was 40.6%.

With `Cn1ncnc1C1c2n[nH]c(=O)c3cc(F)cc(c23)NC1c1ccc(F)cc1` (stereo not given) + Cc1ccccc1N=Nc1ccc(NC(=O)c2ccnn2C)c(C)c1 the IC50 (second compound 0.1 µM) was 0.0913 µM, the IC50 (second compound 0.316 µM) was over 0.1 µM and the IC50 (second compound 1 µM) was over 0.1 µM. It also gave an IC50 (second compound 3.16 µM) of over 0.1 µM, an IC50 (second compound 10 µM) of under 0.000316 µM and a viability, T/C (second compound 0.1 µM, first compound 0.000316 µM) of 85.6%. The viability, T/C (second compound 0.1 µM, first compound 0.001 µM) was 99.2%, the viability, T/C (second compound 0.1 µM, first compound 0.00316 µM) was 89.9% and the viability, T/C (second compound 0.1 µM, first compound 0.01 µM) was 93%. For the same molecule, the viability, T/C [1] was 68.7%, the viability, T/C [2] was 48.4% and the viability, T/C (second compound 0.316 µM, first compound 0.000316 µM) was 110%. For the same molecule, the viability, T/C (second compound 0.316 µM, first compound 0.001 µM) was 94.5%, the viability, T/C (second compound 0.316 µM, first compound 0.00316 µM) was 86% and the viability, T/C (second compound 0.316 µM, first compound 0.01 µM) was 87.7%. The viability, T/C [3] was 76.3%, the viability, T/C [4] was 54.9% and the viability, T/C (second compound 1 µM, first compound 0.000316 µM) was 98.5%. For the same molecule, the viability, T/C (second compound 1 µM, first compound 0.001 µM) was 82.9%, the viability, T/C (second compound 1 µM, first compound 0.00316 µM) was 96.6% and the viability, T/C (second compound 1 µM, first compound 0.01 µM) was 83.9%. The viability, T/C [5] was 67.5%, the viability, T/C [6] was 53.8% and the viability, T/C (second compound 3.16 µM, first compound 0.000316 µM) was 77.6%. The viability, T/C (second compound 3.16 µM, first compound 0.001 µM) was 87.5%, the viability, T/C (second compound 3.16 µM, first compound 0.00316 µM) was 93% and the viability, T/C (second compound 3.16 µM, first compound 0.01 µM) was 83.5%. It also gave a viability, T/C [7] of 67.4%, a viability, T/C [8] of 52.1% and a viability, T/C (second compound 10 µM, first compound 0.000316 µM) of 50.1%. It also gave a viability, T/C (second compound 10 µM, first compound 0.001 µM) of 49.9%, a viability, T/C (second compound 10 µM, first compound 0.00316 µM) of 46.5% and a viability, T/C (second compound 10 µM, first compound 0.01 µM) of 47.2%. For the same molecule, the viability, T/C [9] was 50.2% and the viability, T/C [10] was 44.2%.
